Molecular target: T1, human DGKζ (Homo sapiens, UniProt Q13574)
T1 construct: made in house; host or cells: Sf9 insect cells, baculovirus
Experiment: Human DGKζ kinase activity inhibition assay (ADP-Glo)
Type: biochemical
Details: intermediates (comparative, lacking the R2 alkyl-carboxamide group); same assay conditions; read-out: IC50 values of intermediates in in vitro human DGKζ kinase activity inhibition assays
In short: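 Enzyme was C-terminally FLAG-tagged full-length human DGKζ from baculovirus-infected insect cells, typically about 0.1 nM, with 1,2-dioleoyl-sn-glycerol in octyl-β-D-glucopyranoside micelles as substrate. ADP formed was detected by ADP-Glo luminescence; data normalised to no-inhibitor (0%) and no-enzyme (100%) controls.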

T1 sequence (Q13574 with tags, fused parts or gaps): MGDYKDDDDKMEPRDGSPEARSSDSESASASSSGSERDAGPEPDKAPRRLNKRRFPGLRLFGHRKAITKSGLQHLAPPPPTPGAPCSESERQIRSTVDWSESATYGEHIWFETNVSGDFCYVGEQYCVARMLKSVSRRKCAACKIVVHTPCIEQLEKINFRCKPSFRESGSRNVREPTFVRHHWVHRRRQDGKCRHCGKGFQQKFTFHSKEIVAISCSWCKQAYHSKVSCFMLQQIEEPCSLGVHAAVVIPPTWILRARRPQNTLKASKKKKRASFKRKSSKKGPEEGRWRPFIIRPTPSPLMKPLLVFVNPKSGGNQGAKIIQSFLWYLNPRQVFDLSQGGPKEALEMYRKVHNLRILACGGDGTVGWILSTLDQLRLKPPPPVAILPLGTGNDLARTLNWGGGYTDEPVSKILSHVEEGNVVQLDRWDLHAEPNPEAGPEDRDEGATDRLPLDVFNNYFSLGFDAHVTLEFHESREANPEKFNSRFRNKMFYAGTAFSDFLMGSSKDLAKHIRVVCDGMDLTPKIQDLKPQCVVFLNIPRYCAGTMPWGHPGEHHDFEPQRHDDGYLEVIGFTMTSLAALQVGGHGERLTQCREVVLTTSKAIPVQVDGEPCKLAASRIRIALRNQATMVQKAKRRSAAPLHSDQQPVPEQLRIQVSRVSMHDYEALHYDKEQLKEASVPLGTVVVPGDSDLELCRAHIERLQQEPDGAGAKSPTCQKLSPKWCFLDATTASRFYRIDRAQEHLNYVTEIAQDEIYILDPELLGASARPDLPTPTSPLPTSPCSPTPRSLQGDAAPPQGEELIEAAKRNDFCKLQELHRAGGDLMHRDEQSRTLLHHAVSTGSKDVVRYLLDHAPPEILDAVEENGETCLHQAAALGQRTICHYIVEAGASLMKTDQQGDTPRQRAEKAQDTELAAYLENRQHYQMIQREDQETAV

Work on “rac-5-[4-amino-2-(N-(2-amino-1-methyl-2-oxo-ethyl)-4-fluoro-anilino)thiazole-5-carbonyl]-N-(2-pyridyl)isoxazole-3-carboxamide [Example 28]” yielded an IC50 of 19.4 µM.
